Assay [1] deals with 5-HT5A (Homo sapiens, UniProt P47898). The assay can be described thus: Secondary radioligand binding assay (Ki).
Description: (§1) Assay Buffer: Standard Binding Buffer (50 mM Tris-HCl, 10 mM MgCl2, 1 mM EDTA, pH 7.4)
(§2) Membrane Fraction Source: Transiently or stably transfected cell lines (e.g., HEK293, COS, CHO, NIH3T3)
(§3) Radioligand is diluted to five times the assay concentration (see Table 18) in Standard Binding Buffer. Typically, the assay concentration of radioligand is a value between one half the KD and the KD of a particular radioligand at its target. 50 μl aliquots of radioligand are dispensed into the wells of a 96-well plate containing 100 μl of Standard Binding Buffer. Then, duplicate 50 μl aliquots of the test and reference compound dilutions are added.
(§4) The 250 μl reactions are incubated at room temperature and shielded from light (to prevent photolysis of light-sensitive ligands) for 1.5 hours, then harvested by rapid filtration onto Whatman GF/B glass fiber filters pre-soaked with 0.3% polyethyleneimine using a 96-well Brandel harverster. Four rapid 500 μl washes are performed with chilled Standard Binding Buffer to reduce non-specific binding. Filters are placed in 6 ml scintillation tubes and allowed to dry overnight. The next day, 4 ml of EcoScint scintillation cocktail (National Diagnostics) are added to each tube. The tubes are capped, labeled, and counted by liquid scintillation counting. […] The filter mats are dried, then scintillant is melted onto the filters and the radioactivity retained on the filters is counted in a Microbeta scintillation counter.
(§5) Raw data (dpm) representing total radioligand binding (i.e. specific+non-specific binding) are plotted as a function of the logarithm of the molar concentration of the competitor (i.e. test or reference compound).
In assay [2] the target is dopamine D5 (Homo sapiens, UniProt P21918). The assay can be described thus: Primary radioligand binding assay (NIMH PDSP). Particulars: primary radiobinding assay, [3H]SCH233930.
Assay [3] deals with 5-HT2B (Homo sapiens, UniProt P41595). The assay can be described thus: Secondary radioligand binding assay (Ki).
Description: as §1, §2, §3, §4, §5
The target of assay [4] is T1, dopamine D3 (Homo sapiens, UniProt P35462). Description: Primary radioligand binding assay (NIMH PDSP). As to conditions: primary radiobinding assay, N-methylspiperone.
T1 sequence (P35462 whole entry): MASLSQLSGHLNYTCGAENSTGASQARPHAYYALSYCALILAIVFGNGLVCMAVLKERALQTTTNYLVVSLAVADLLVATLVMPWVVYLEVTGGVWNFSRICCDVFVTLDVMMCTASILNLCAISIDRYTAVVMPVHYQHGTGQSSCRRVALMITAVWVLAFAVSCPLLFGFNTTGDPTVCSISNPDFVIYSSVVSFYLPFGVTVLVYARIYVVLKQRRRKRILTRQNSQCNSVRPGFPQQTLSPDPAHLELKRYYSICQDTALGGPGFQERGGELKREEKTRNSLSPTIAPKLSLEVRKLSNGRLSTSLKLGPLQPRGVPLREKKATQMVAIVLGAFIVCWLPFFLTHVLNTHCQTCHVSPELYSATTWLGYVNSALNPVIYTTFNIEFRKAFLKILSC
For assay [5], the target named is T2, Alpha1B (Homo sapiens, UniProt P35368).
T2 sequence (P35368 1-520): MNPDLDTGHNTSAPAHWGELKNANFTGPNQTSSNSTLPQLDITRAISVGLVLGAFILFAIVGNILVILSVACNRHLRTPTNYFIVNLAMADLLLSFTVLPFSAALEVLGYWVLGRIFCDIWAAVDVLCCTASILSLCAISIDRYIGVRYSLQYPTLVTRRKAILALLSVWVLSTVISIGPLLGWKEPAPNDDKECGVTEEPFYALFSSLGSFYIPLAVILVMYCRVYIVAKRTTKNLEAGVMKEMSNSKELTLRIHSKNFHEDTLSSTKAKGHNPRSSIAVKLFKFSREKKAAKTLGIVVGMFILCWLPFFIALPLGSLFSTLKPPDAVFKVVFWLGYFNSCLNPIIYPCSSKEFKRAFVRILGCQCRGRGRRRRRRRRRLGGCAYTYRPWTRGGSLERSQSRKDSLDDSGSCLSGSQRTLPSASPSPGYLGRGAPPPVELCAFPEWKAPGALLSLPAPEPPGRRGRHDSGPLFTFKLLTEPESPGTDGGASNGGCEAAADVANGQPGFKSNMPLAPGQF
Description: Primary radioligand binding assay (NIMH PDSP). As to conditions: primary radiobinding assay, [3H]Prazosin.

Assay [6] addresses dopamine D1 (Homo sapiens, UniProt P21728). Description: Primary radioligand binding assay (NIMH PDSP). As to conditions: primary radiobinding assay, [3H]SCH233930.
Assay [7] addresses T3, Alpha1A (Homo sapiens, UniProt P35348).
T3 sequence (P35348 1-466): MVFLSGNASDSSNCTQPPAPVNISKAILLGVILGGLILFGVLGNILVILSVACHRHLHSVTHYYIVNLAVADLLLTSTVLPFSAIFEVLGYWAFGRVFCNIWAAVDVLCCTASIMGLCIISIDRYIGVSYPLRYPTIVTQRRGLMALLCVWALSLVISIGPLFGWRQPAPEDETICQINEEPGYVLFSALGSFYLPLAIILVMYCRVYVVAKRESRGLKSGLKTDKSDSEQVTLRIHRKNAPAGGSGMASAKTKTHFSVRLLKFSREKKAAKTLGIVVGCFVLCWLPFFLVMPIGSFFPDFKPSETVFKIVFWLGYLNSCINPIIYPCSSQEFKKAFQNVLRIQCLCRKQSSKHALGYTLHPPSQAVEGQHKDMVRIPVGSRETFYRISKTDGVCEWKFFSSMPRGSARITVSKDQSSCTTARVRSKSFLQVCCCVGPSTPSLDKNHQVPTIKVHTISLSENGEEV
The assay can be described thus: Primary radioligand binding assay (NIMH PDSP). Particulars: primary radiobinding assay, [3H]Prazosin.

Assay [8] concerns the target T4, 5HT1a (Homo sapiens, UniProt P08908).
T4 sequence (P08908 1-422): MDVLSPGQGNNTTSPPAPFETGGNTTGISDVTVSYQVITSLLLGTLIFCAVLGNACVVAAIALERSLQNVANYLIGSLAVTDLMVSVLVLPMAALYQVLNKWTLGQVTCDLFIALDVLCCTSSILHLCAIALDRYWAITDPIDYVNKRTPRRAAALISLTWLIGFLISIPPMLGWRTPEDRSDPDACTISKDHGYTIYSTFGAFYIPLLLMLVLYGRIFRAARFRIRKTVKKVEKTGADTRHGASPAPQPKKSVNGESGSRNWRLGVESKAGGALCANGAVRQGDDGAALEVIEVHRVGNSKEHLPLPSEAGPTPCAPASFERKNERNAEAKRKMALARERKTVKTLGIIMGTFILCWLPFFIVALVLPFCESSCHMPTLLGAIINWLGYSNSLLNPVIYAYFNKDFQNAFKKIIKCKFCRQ
Description: Primary radioligand binding assay (NIMH PDSP). Particulars: primary radiobinding assay, [3H]8-OH-DPAT.

Assay [9] has as its target T5, dopamine D2 (Homo sapiens, UniProt P14416). The assay can be described thus: Secondary radioligand binding assay (Ki).
Description: as §3, §4, §5
(§6) Assay Buffers: Dopamine Binding Buffer (50 mM NaCl, 50 mM HEPES-HCl, 5 mM MgCl2, 0.5 mM EDTA, pH 7.4)
(§7) Membrane Fraction Source: Transiently or stably transfected cell lines (e.g. HEK293, COS, CHO, NIH3T3)
(§8) The method is carried out in the manner described for the serotonin receptor assay above. Eleven dilutions (5× assay concentration) of the test and reference (see Table 19) compounds are prepared in Dopamine Binding Buffer by serial dilution, as previously described. Radioligand is diluted to five times the assay concentration (see Table 20) in Dopamine Binding Buffer.
Assay [10] deals with T1, dopamine D3. Description: Secondary radioligand binding assay (Ki).
Description: as §3, §4, §5, §6, §7, §8
In assay [11] the target is T5, dopamine D2. The assay can be described thus: Primary radioligand binding assay (NIMH PDSP). As to conditions: primary radiobinding assay, [3H]N-methylspiperone.
Assay [12] has as its target T6, α1A (Alpha1A) (Homo sapiens, UniProt P35348).
T6 sequence (P35348 1-466): T3 sequence (P35348 1-466)
The assay can be described thus: Secondary radioligand binding assay (Ki).
Description: as §3, §4, §5
Adrenergic Receptors: α1A, α1B, α2A, α2B, α2C, β1, β2, β3
as §7
The method is carried out in the manner described for the serotonin receptor assay above, except where described below. Eleven dilutions (5× assay concentration) of the test and reference (see Table 20) compounds are prepared in the appropriate buffer by serial dilution, as previously described. Radioligand is diluted to five times the assay concentration (see Table 21) in the appropriate buffer.
The 250 μl reactions are incubated at room temperature and shielded from light (to prevent photolysis of light-sensitive ligands) for 1 hour (for α1 receptors, 40 min for α2 receptors, and 1.5 hours for β receptors), then harvested by rapid filtration onto Whatman GF/B glass fiber filters pre-soaked with 0.3% polyethyleneimine using a 96-well Brandel harverster. Four rapid 500-μl washes are performed with chilled distilled water (for α1 and β receptors) or 0.1% polyethyleneimine (for α2 receptors) to reduce non-specific binding. Filters are placed in 6 ml scintillation tubes and allowed to dry overnight and the samples are treated to obtain data as described above.

Assay [13] addresses T4, 5HT1a. Description: Secondary radioligand binding assay (Ki).
Description: as §1, §2, §3, §4, §5
[14] abbreviates: Table 22: Selectivity of Dopamine D2 over α1 Receptors, ratio of Ki.
Where [15] appears, read: Table 23: Selectivity of Dopamine D3 over α1 Receptors, ratio of Ki.
[16] abbreviates: Table 24: Selectivity of 5HT1A over α1 Receptors, ratio of Ki.

Molecules are shown by their SMILES. Like-named read-outs stand apart in the source and are kept apart here.
Wherever 5ht1a (% inh) is given: test concentration or dose not given here.
Wherever Alpha1A (% inh) is given: test concentration or dose not given here.
Wherever Alpha1B (% inh) is given: test concentration or dose not given here.
Wherever D1 (% inh) is given: test concentration or dose not given here.
Wherever D3 (% inh) is given: test concentration or dose not given here.
Wherever D5 (% inh) is given: test concentration or dose not given here.

T5 sequence (P14416 whole entry, species assumed): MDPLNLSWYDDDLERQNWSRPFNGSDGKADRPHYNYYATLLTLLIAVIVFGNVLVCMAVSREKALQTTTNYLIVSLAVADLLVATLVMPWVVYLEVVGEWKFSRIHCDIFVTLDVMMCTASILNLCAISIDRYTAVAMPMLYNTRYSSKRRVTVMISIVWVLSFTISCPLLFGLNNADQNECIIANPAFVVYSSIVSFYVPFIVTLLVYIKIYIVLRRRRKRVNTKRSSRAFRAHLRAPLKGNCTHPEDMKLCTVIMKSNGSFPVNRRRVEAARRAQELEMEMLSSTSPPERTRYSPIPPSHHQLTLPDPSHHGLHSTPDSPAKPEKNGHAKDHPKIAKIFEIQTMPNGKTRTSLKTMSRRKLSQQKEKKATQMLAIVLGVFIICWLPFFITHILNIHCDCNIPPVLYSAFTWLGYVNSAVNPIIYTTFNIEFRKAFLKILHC
Sequence of dopamine D5 (P21918 whole entry): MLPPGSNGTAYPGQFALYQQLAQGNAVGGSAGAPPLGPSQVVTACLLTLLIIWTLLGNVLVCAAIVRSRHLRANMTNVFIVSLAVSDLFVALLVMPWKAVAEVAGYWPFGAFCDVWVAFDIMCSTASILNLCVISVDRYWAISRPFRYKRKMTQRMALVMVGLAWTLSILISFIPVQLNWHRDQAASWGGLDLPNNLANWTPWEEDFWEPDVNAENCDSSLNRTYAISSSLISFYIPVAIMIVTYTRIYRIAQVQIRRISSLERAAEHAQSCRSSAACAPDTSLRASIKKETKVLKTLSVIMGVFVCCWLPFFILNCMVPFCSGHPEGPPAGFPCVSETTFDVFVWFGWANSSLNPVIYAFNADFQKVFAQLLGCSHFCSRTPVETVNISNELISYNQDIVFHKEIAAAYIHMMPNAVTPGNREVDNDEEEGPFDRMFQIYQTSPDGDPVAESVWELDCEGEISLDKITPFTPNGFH
Sequence of 5-HT5A (P47898 whole entry, species assumed): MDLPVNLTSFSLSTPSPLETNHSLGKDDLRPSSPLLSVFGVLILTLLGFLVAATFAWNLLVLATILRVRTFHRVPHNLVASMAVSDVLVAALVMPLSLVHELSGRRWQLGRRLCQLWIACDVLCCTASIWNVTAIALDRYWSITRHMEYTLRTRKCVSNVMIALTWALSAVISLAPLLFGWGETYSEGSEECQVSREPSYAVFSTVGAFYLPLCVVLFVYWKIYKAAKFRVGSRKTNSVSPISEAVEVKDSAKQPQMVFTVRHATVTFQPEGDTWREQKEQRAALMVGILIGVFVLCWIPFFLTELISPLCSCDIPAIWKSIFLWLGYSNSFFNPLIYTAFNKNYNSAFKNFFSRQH
Sequence of dopamine D1 (P21728 whole entry): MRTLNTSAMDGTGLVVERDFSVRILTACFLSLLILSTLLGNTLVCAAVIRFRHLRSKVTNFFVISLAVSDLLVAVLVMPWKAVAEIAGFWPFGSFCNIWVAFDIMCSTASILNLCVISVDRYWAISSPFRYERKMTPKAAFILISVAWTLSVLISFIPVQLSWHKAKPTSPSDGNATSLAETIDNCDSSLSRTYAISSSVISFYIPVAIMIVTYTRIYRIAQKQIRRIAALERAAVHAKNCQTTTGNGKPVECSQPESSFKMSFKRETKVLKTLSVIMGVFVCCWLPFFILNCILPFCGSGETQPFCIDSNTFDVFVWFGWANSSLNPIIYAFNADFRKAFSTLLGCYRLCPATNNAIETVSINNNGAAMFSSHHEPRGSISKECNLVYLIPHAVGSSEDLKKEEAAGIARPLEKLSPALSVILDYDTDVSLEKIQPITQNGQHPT
Sequence of 5-HT2B (P41595 whole entry, species assumed): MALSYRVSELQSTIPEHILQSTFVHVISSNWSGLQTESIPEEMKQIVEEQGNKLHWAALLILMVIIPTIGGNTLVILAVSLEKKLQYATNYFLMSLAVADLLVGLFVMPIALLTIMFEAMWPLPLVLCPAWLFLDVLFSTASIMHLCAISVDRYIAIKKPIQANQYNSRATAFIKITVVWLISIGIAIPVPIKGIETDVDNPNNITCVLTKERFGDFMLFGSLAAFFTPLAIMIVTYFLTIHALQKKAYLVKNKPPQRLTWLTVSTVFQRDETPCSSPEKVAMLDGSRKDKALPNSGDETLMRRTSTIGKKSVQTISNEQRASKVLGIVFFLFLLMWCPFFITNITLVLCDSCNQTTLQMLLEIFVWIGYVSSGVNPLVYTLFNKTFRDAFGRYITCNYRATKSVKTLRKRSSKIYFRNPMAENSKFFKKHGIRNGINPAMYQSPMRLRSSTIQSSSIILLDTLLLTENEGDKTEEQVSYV

Consider `COc1ccc2c(c1)CN(CCCN1CCN(c3ccccc3OC)CC1)C2=O` [GFR-VII-290], for which the Ki was determined as 2470 nM in assay [1]; 117 nM in [3]; 1370 nM in assay [9] (read-out: Experimental Receptor Binding Data-Ki D2, Table 25, GPCR panel); 1370 nM in [9] (read-out: KiD2); 152 nM in assay [10] (read-out: Experimental Receptor Binding Data-Ki D3, Table 25, GPCR panel); 152 nM in assay [10] (read-out: KiD3). Besides, the Ki was 59.9 nM in [12] (read-out: Experimental Receptor Binding Data-Ki ALPHA_1A, Table 25, GPCR panel); 59.9 nM in [12] (read-out: Kiα1A); 19 nM in assay [13] (read-out: Ki 5HT1A). Moreover, in [2], the “D5 (% inh)” value was 32.5 % inh. Besides, in [4], the “D3 (% inh)” value is 94.7 % inh. Moreover, the “Alpha1B (% inh)” value in assay [5] is 52.4 % inh. Further, in assay [6], the “D1 (% inh)” value stood at 54.5 % inh. In addition, the “Alpha1A (% inh)” value in [7] is recorded as 99.1 % inh. For the same compound, in assay [8], the “5ht1a (% inh)” value is 98.3 % inh. Further, the α1/D2 in [9] (Table 22: Selectivity of Dopamine D2 over average of α1 Receptors) is 0.177; in [10] (Table 23: Selectivity of Dopamine D3 over average of α1 Receptors) it was 1.6; in assay [13] (Table 24: Selectivity of 5HT1A over average of α1 Receptors), 12.7. The α1A/D2 was 0.044 in assay [9] (setting [14]), 0.4 in [10] (setting [15]) and 3.2 in assay [13] (setting [16]). In addition, the α1B/D2 in assay [9] (setting [14]) was 0.445; in assay [10] (setting [15]), 4.0; in assay [13] (setting [16]), 32.0. Moreover, the α1D/D2 came out at 0.041 in assay [9] (setting [14]), 0.37 in assay [10] (setting [15]) and 2.9 in assay [13] (setting [16]). For the same compound, the “D2 (% inh)” value in assay [11] is given as 82.1 % inh.

For the compound `CC1Cc2ccccc2N1C(=O)CN1CCN(Cc2ccccc2)CC1` (centres unmarked) [STT-00185638, 2-[-4-(benzyl)-piperazin-1-yl]-1-(2-methy-2,3-dihydro-indol-1-yl)-ethanone], the Ki in assay [1] stood at 6770 nM; in assay [3] it was 879 nM; in [9], 2460 nM; in [10], 3220 nM; in assay [12], 2060 nM; in assay [13] it was 7080 nM. Also, the “D5 (% inh)” value in [2] was determined as 9.7 % inh. Besides, the “D3 (% inh)” value in assay [4] was found to be 63.6 % inh. The “Alpha1B (% inh)” value in assay [5] was 16 % inh. For the same compound, the “D1 (% inh)” value in [6] was 50.8 % inh. Further, the “Alpha1A (% inh)” value in assay [7] turned out to be 69.1 % inh. Moreover, in assay [8], the “5ht1a (% inh)” value was determined as 64.9 % inh. The “D2 (% inh)” value in assay [11] amounted to 66.2 % inh.
